{
  "source": "paper PMC6151561",
  "about": "“Rapid Identification of Dipeptidyl Peptidase-IV (DPP-IV) Inhibitory Peptides from Ruditapes philippinarum Hydrolysate” (Molecules : A Journal of Synthetic Chemistry and Natural …, 2017)",
  "key": {"DPP-IV [1]": {"system": "DPP-IV", "set-up": "method as in PMID 26758401", "details": "heptapeptide derived from silver carp actin; cited from earlier work"}, "DPP-IV [2]": {"system": "DPP-IV", "set-up": "method as in PMID 25577052", "details": "read-out: DPP-IV inhibitory activity IC50; cited from earlier work"}, "porcine DPP-IV": {"target": "T1, porcine DPP-IV (Sus scrofa, UniProt P22411)", "T1 construct": "purchased Sigma Chemical Co. (St. Louis, MO, USA)", "T1 sequence (P22411 whole entry)": "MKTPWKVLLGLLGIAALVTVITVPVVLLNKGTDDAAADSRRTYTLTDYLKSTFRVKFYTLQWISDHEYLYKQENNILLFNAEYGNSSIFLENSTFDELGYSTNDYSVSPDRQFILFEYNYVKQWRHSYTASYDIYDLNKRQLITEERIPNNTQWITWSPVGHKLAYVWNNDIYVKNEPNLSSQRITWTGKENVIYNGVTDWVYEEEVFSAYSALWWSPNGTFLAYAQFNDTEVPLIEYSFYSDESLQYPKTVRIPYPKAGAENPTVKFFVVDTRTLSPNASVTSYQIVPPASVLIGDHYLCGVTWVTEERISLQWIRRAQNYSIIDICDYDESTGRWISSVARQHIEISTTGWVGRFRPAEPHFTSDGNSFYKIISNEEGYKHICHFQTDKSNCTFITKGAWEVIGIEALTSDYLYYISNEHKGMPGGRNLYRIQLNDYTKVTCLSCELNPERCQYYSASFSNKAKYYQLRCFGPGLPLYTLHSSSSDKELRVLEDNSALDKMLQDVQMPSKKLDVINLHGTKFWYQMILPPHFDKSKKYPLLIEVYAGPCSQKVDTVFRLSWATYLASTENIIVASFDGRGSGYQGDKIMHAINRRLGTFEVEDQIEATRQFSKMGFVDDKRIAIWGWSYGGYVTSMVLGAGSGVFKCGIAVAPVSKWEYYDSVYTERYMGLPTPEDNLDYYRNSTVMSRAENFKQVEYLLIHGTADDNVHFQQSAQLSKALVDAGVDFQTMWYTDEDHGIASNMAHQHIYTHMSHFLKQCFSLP", "assay": "DPP-IV inhibitory activity assay (Gly-Pro-p-nitroanilide substrate, absorbance 405 nm)", "format": "biochemical", "details": "chemically synthesized peptides; diprotin A positive control", "from_the_text": "Papain (from papaya, 8 × 10^5 units/g of protein), trypsin (from porcine pancreas, 2.5 × 10^5 units/g of protein), pepsin (from porcine gastric mucosa, 1 × 10^4 units/g of protein), flavourzyme (from […], 2 × 10^4 units/g of protein), and alcalase (from Bacillus licheniformis, 2 × 10^5 units/g of protein) were purchased from […] Biological Tech., Ltd. (Nanjing, China). […] (St. Louis, MO, USA). Mass spectrometry (MS)-grade water, acetonitrile (ACN), and trifluoroacetic acid (TFA) were purchased from Tedia Company Inc. (Fairfield, CT, USA). All other reagents were obtained from Sigma. All reagents were of analytical grade. DPP-IV inhibitory activity was measured as previously described by Zhang with minor modifications. Briefly, a 25 μL sample (diluted in 100 mM Tris-HCl buffer at pH 8.0) was mixed with 25 μL Gly-Pro-p-nitroanilide (1.6 mM) and pre-incubated at 37 °C for 10 min. […] The reaction was terminated by adding 100 μL of 1 M sodium acetate buffer at pH 4.0. The absorbance of each reaction was measured at 405 nm. Diprotin A ([…]) was used as a reference inhibitor. The percent DPP-IV inhibition was calculated according to the following equation: […] The DPP-IV inhibitory activity of these chemically synthesized peptides was determined as described in Section 3.3."}, "DPP-IV enzyme": {"target": "T2, DPP-IV enzyme (Sus scrofa, UniProt P22411)", "T2 construct": "purchased Sigma Chemical Co. (St. Louis, MO, USA)", "T2 sequence (P22411 whole entry)": "as above", "assay": "Lineweaver-Burk double-reciprocal plot, mode of DPP-IV inhibition", "format": "biochemical, porcine", "details": "Figure 7", "description": "Figure 7 Lineweaver—Burk double-reciprocal plot for DPP-IV activity in the absence and presence of four peptides at different inhibitory concentrations. […] (0, 150, and 300 μM); (C) peptide LAPSTM (0, 150, and 300 μM); (D) peptide […] (0, 250, and 500 μM); and (E) peptide FLMESH (0, 400, and 800 μM).\nDPP-IV inhibitory activity was measured as previously described by Zhang with minor modifications. Briefly, a 25 μL sample (diluted in 100 mM Tris-HCl buffer at pH 8.0) was mixed with 25 μL Gly-Pro-p-nitroanilide (1.6 mM) and pre-incubated at 37 °C for 10 min. Subsequently, 50 μL of DPP-IV (8 U/L) was added and the mixture was incubated at 37 °C for 1 h. The reaction was terminated by adding 100 μL of 1 M sodium acetate buffer at pH 4.0. The absorbance of each reaction was measured at 405 nm. […] The percent DPP-IV inhibition was calculated according to the following equation: DPP-IV inhibition(%)=[1−Asample/Ablank]×100%"}},
  "note": "No end group written: not given here.",
  "data": [
    {"compound": "ALAPSTM [heptapeptide derived from silver carp actin, from the literature]", "values": [
      {"measurement": "DPP-IV inhibitory effect", "setting": "DPP-IV [1]", "result": "weak DPP-IV inhibitory effect"}
    ]},
    {"compound": "Leu-Ala", "values": [
      {"measurement": "IC50", "setting": "DPP-IV [2]", "result": 91, "unit": "µM"}
    ]},
    {"compound": "FAGDDAPR [FAGDDAPR]", "values": [
      {"measurement": "IC50", "setting": "porcine DPP-IV", "result": 169, "unit": "µM"},
      {"measurement": "mode of inhibition of DPP-IV enzyme", "setting": "DPP-IV enzyme", "result": "competitive/non-competitive mixed-type inhibition mode"}
    ]},
    {"compound": "LAPSTM [LAPSTM]", "values": [
      {"measurement": "IC50", "setting": "porcine DPP-IV", "result": 141, "unit": "µM"}
    ]},
    {"compound": "FAGDDAPRA [FAGDDAPRA]", "values": [
      {"measurement": "IC50", "setting": "porcine DPP-IV", "result": 393, "unit": "µM"},
      {"measurement": "mode of inhibition of DPP-IV enzyme", "setting": "DPP-IV enzyme", "result": "competitive/non-competitive mixed-type inhibition mode"}
    ]},
    {"compound": "FLMESH [FLMESH]", "values": [
      {"measurement": "IC50", "setting": "porcine DPP-IV", "result": "> 500", "unit": "µM"},
      {"measurement": "mode of inhibition of DPP-IV enzyme", "setting": "DPP-IV enzyme", "result": "competitive/non-competitive mixed-type inhibition mode"}
    ]},
    {"compound": "CC[C@H](C)[C@H](N)C(=O)N1CCC[C@H]1C(=O)N[C@H](C(=O)O)[C@@H](C)CC", "note": "[diprotin A, Ile-Pro-Ile, reference compound]", "values": [
      {"measurement": "mode of inhibition of DPP-IV enzyme", "setting": "DPP-IV enzyme", "result": "competitive inhibitor"}
    ]}
  ]
}
